Data set [1] is described as follows: Inhibition of NF-kappaB transcriptional activity in human HeLa cells transfected with NF-kappaB-Luc by dual-luciferase reporter gene assay. It counts as cell-based. (In general: Reporter assays use an easily measured gene product as a stand-in for the process of interest.)
The subject of data set [2] is RAW264.7. The experiment in a line: Anti-inflammatory activity against mouse RAW264.7 cells assessed as reduction in LPS-induced COX-2 mRNA expression level preincubated for 1 hr followed by LPS addition and measured after 16 hrs by qRT-PCR analysis. Format: functional, cell-based. The settings on record: time 17.0 hrs.
For data set [3], the system named is RAW264.7. The experiment in a line: Anti-inflammatory activity against mouse RAW264.7 cells assessed as reduction in LPS-induced IL-6 mRNA expression level preincubated for 1 hr followed by LPS addition and measured after 16 hrs by qRT-PCR analysis. Format: functional, cell-based. The settings on record: time 17.0 hrs. A general note: Real-time PCR tracks product formation cycle by cycle.

The subject of data set [4] is NIH3T3. The experiment in a line: Cytotoxicity against mouse 3T3 cells assessed as reduction in cell viability after 24 hrs by MTT assay. Particulars: nih3t3, 24 h. It counts as toxicity, cell-based.
In data set [5] the test system is RAW264.7. The experiment in a line: Anti-inflammatory activity against mouse RAW264.7 cells assessed as reduction in LPS-induced IL-1beta mRNA expression level preincubated for 1 hr followed by LPS addition and measured after 16 hrs by qRT-PCR analysis. The settings on record: time 17.0 hrs. Format: functional, cell-based.
In data set [6] the test system is HeLa. Put plainly: Inhibition of NF-kappaB transcriptional activity in human HeLa cells transfected with NF-kappaB-Luc at 10 uM by dual-luciferase reporter gene assay relative to control. Format: cell-based.
Data set [7] concerns MG-63. Put plainly: Induction of osteoporosis in human MG-63 cells assessed as decrease in OPG mRNA expression level at 10 uM by qRT-PCR analysis. It counts as functional, cell-based.
Data set [8] deals with MG-63. Put plainly: Induction of osteoporosis in human MG-63 cells assessed as decrease in RANKL mRNA expression level at 10 uM by qRT-PCR analysis. It counts as functional, cell-based.
Data set [9] concerns the target T1, Glucocorticoid receptor (Homo sapiens) (UniProt P04150).
T1 sequence (whole entry): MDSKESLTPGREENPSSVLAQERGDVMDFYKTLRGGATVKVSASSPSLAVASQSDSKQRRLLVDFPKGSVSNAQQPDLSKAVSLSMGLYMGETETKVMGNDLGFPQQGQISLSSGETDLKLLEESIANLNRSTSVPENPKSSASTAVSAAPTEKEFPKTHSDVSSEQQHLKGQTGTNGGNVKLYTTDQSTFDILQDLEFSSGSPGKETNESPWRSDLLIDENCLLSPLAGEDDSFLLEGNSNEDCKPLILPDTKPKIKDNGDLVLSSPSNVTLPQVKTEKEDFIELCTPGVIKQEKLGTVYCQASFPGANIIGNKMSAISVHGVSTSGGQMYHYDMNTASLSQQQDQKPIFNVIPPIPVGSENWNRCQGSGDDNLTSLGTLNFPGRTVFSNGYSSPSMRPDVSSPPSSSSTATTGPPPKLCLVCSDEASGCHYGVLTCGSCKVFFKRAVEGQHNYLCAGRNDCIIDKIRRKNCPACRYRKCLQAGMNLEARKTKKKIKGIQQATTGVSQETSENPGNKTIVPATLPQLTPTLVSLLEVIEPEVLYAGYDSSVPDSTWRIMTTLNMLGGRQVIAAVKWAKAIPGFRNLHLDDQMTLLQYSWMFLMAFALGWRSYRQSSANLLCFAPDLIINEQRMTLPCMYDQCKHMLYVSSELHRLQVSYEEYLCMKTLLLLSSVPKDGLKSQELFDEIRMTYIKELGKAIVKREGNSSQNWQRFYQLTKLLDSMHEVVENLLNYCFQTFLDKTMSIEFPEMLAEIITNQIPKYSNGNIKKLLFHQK
The experiment in a line: Binding affinity to recombinant human GST-tagged glucocorticoid receptor ligand binding domain at 10 uM by TR-FRET assay relative to control. The settings on record: filed as modulator.

Data set [10] concerns the target T1, Glucocorticoid receptor (Homo sapiens). Put plainly: (§1) Binding affinity to recombinant human GST-tagged glucocorticoid receptor ligand binding domain by TR-FRET assay relative to control. The settings on record: filed as modulator, DDE = dose-dependent effect. Background: TR-FRET usually uses a lanthanide donor and a delayed reading to cut background.
Data set [11] addresses T2, Glucocorticoid receptor (Homo sapiens, UniProt P04150).
T2 sequence (P04150 whole entry): T1 sequence (whole entry)
Described as §1.

Data set [12] concerns RAW264.7. The experiment in a line: Anti-inflammatory activity against mouse RAW264.7 cells assessed as inhibition of LPS-induced NO production at 25 uM incubated for 16 hrs by Greiss reagent assay. Format: functional, cell-based.
The subject of data set [13] is A549. Put plainly: Anti-inflammatory activity against human A549 cells assessed as reduction in TNFalpha induced IL-1beta mRNA expression level by qRT-PCR analysis. It counts as functional, cell-based.
The test system of data set [14] is RAW264.7. The experiment in a line: Cytotoxicity against mouse RAW264.7 cells assessed as reduction in cell viability at 25 uM incubated for 48 hrs by MTT assay. The settings on record: raw264.7, 48 h. Format: toxicity, cell-based.
Data set [15] relates to RAW264.7. Put plainly: Anti-inflammatory activity against mouse RAW264.7 cells assessed as reduction in LPS-induced […] mRNA expression level preincubated for 1 hr followed by LPS addition and measured after 16 hrs by qRT-PCR analysis. The settings on record: time 17.0 hrs. Format: functional, cell-based.
Data set [16] addresses T3, Mineralocorticoid receptor (Homo sapiens) (UniProt P08235).
T3 sequence (whole entry): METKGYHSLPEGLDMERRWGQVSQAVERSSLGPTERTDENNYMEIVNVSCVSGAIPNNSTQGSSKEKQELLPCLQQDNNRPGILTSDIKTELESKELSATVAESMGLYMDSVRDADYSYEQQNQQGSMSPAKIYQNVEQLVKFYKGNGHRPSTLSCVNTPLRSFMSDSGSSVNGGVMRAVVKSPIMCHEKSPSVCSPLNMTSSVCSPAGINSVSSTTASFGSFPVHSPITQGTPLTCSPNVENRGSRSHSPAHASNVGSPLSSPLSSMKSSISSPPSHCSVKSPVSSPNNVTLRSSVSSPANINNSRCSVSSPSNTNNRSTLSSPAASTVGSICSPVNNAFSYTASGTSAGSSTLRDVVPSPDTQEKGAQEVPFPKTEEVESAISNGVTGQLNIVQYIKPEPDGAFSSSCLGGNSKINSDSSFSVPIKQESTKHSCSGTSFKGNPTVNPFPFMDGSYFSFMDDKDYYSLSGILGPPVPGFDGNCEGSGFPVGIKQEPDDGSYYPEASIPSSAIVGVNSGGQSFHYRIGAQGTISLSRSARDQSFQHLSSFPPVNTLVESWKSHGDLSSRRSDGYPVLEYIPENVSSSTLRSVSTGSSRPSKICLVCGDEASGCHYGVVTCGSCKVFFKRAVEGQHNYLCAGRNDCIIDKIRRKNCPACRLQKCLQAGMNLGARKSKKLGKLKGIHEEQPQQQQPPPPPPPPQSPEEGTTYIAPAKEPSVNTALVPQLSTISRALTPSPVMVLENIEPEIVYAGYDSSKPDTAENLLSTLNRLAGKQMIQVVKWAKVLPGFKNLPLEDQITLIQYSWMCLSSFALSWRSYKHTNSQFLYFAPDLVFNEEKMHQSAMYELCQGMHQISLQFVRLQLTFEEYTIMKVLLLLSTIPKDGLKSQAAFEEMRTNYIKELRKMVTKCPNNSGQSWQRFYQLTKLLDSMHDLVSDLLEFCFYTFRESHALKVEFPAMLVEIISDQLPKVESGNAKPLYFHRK
Put plainly: Agonist activity at mineralocorticoid receptor (unknown origin) expressed in HEK293T cells co-transfected with pGL4.36[luc2P MMTV Hygro]/Renilla at 10 to 25 uM incubated for 16 hrs by luciferase reporter gene assay. It counts as cell-based. Particulars: filed as agonist, dose 10-25 µM.

In data set [17] the target is T4, Progesterone receptor (Homo sapiens) (UniProt P06401).
T4 sequence (whole entry): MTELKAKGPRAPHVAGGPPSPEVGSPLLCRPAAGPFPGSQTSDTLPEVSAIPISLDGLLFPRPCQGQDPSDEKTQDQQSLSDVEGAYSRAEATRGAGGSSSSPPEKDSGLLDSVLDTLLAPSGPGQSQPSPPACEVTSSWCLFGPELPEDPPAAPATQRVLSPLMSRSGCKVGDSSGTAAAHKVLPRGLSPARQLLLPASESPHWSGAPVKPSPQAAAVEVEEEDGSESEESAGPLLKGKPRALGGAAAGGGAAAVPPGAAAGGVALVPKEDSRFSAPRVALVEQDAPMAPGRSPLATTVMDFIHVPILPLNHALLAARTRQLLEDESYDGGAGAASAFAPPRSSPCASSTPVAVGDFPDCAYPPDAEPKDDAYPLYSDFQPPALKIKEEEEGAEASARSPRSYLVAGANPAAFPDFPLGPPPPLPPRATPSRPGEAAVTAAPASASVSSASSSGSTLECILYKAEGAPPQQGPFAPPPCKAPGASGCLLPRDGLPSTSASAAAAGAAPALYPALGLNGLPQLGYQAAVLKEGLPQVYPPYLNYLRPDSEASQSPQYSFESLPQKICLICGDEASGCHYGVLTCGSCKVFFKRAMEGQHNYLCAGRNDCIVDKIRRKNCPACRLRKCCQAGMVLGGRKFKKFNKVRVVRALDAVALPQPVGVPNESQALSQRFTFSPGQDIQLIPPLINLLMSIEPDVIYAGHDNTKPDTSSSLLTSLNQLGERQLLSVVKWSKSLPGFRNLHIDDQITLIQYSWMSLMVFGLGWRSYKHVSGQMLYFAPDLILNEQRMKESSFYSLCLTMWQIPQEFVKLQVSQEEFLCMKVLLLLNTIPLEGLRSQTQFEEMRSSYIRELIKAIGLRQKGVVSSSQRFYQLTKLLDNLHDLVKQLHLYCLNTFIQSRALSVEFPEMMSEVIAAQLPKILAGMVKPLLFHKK
Put plainly: Agonist activity at progesterone receptor (unknown origin) expressed in PC3 cells co-transfected with ARR3tk-luciferase/Renilla at 10 to 25 uM incubated for 16 hrs by luciferase reporter gene assay. The settings on record: PC-3, filed as agonist, dose 10-25 µM. It counts as cell-based.

Activity calls are given as the source filed them. The rule behind the calls is not given here. Bounds are passed on as bounds.

Usually IC50 stands for the midpoint of a concentration-inhibition curve. In turn, `C[C@@H](NC(=O)c1ccc(Cn2c(=S)[nH]c3ccsc3c2=O)cc1)c1ccccc1` registered an IC50 in [1] of 3.8 µM. Moreover, the result in data set [2], in data set [3] and in [5] was Active. Further, the Activity entry in [4] is on record as “Non-Toxic”.
One may read the inhibition as the drop in the measured response relative to a control, in per cent. `O=C(c1ccc(Cn2c(=S)[nH]c3ccsc3c2=O)cc1)N1CCc2ccccc2C1` came in with an IC50 in data set [1] of 0.99 µM. Also, in data set [6], the inhibition was found to be 106%.
The compound `CC(NC(=O)c1ccc(/C=C2/Sc3ccccc3NC2=O)cc1)c1ccc2c(c1)OCCO2` (configuration not stated) came in with an IC50 in data set [1] of 18.3 µM. The inhibition in data set [6] was 67%.
For `CC(C)[C@H](NC(=O)C(C)(F)F)[C@H](Oc1ccc2c(cnn2-c2ccc(=O)n(C)c2)c1)c1ccccc1`, the Activity result in [7] was “Toxic”; in [8], “Non-Toxic”.
For `O=C(c1ccc(Cn2c(=S)[nH]c3ccc(Br)cc3c2=O)cc1)N1CCN(c2cccc(Cl)c2)CC1`, the inhibition in [6] is 54.1%.
Turning to `O=C(Nc1ccccc1C(=O)NCc1cccnc1)c1ccc(CN2CCc3ccccc3C2)cc1`, the IC50 in data set [1] came to 6.61 µM. Further, the inhibition in [6] was 89%.
For the compound `O=C(NCc1cccnc1)c1ccc(Cn2c(=S)[nH]c3ccsc3c2=O)cc1`, the inhibition in [6] came out at 76%.
For the compound `CC(NC(=O)c1ccc(CN2CCc3ccccc3C2)cc1)c1ccccc1` (configuration not stated), the inhibition in [6] stood at 49.1%.
In turn, `C[C@H](NC(=O)c1ccc(Cn2c(=S)[nH]c3ccsc3c2=O)cc1)c1ccccc1` came in with an IC50 in [1] of 1.92 µM. The outcome in data set [2], in data set [3] and in data set [5] was Active. In addition, the Activity entry in [4] is recorded as “Non-Toxic”.
On to `COc1ccc(CNC(=O)c2ccc(Cn3c(=S)[nH]c4ccsc4c3=O)cc2)cc1`, for which the IC50 in data set [1] was 7.38 µM. In addition, the inhibition in [6] was found to be 93.1%.
As to `Cn1c(=O)n(C)c2cc(NC(=O)c3ccc(CN4CCc5ccccc5C4)cc3)ccc21`, the inhibition in data set [6] is 10.6%.
Take `O=C(c1ccc2c(=O)n(Cc3ccc(Cl)cc3)c(=S)[nH]c2c1)N(CCO)Cc1ccccc1`: the inhibition in [6] was 75.8%.
`CC(NC(=O)c1ccc(CN2CC(=O)N3CSC[C@@H]3C2=O)cc1)c1ccccc1` (some centres not stated): the inhibition in data set [6] is 34.1%.
As to `CC(NC(=O)c1ccc(Cn2c(=S)[nH]c3ccsc3c2=O)cc1)c1ccccc1` (configuration not stated), the Activity in data set [9] was below 60%; in [10] it was “Dde”; in data set [7], “Toxic”; in [8], “Non-Toxic”; in data set [14], “Non-Toxic”. The figures for the IC50 in data set [11] and in data set [1] were 2.05 µM and 2.32 µM, respectively. The inhibition in data set [6] is 86.9%. The outcome in data set [2], in data set [3], in data set [13] and in data set [5] was Active. Moreover, in [12], the inhibition entry is “Active”.
Turning to `CC(NC(=O)c1ccc(Cn2c(=S)[nH]c3ccsc3c2=O)cc1)c1ccc2c(c1)OCO2` (configuration not stated), in data set [1], the IC50 stood at 5.14 µM. In addition, the inhibition in data set [6] turned out to be 94.6%.
With `Cc1ccc(S(=O)(=O)NCc2ccc(C(=O)NC(C)c3ccccc3)cc2)cc1` (configuration not stated), the inhibition in data set [6] was 51.3%.
For `C[C@@H]1C[C@H]2[C@@H]3CCC4=CC(=O)C=C[C@]4(C)[C@@]3(F)[C@@H](O)C[C@]2(C)[C@@]1(O)C(=O)CO`, the result in data set [15], in [16], in [13], in data set [17] and in data set [5] was Active. In addition, in data set [12], the inhibition entry is “Active”. Further, the Activity result in data set [7] is “Toxic”; in [8] it was “Non-Toxic”.
Compound `COc1ccccc1Nc1nc(C(=O)N(CC(=O)NC2CC2)Cc2ccccc2)cs1` displayed an IC50 in data set [1] of 1.07 µM. Besides, in data set [6], the inhibition amounted to 99.9%.
